Test results published in PubChem BioAssay (NCI).
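A five-concentration, 48-hour dose response in 96-well plates underlies each endpoint, interpolated linearly between surrounding concentrations. GI50 is the concentration that inhibits growth by half. TGI: concentration producing complete growth inhibition.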

Experiments:
Experiment in all cases: NCI-60 cell line screen, 48 h
COLO 205 colon = test system: COLO 205 colon
OVCAR-5 ovarian = test system: OVCAR-5 ovarian
MDA-MB-435 = test system: MDA-MB-435
T-47D breast = test system: T-47D breast
OVCAR-3 ovarian = test system: OVCAR-3 ovarian
HT29 colon = test system: HT29 colon
NCI-H522 lung = test system: NCI-H522 lung
PC-3 prostate = test system: PC-3 prostate
HOP-62 NSCLC = test system: HOP-62 NSCLC
U251 CNS = test system: U251 CNS

Row | Compound | GI50 (COLO 205 colon) [µM] | TGI (COLO 205 colon) [µM] | GI50 (OVCAR-5 ovarian) [µM] | TGI (OVCAR-5 ovarian) [µM] | GI50 (MDA-MB-435) [µM] | TGI (MDA-MB-435) [µM] | GI50 (T-47D breast) [µM] | TGI (T-47D breast) [µM] | GI50 (OVCAR-3 ovarian) [µM] | TGI (OVCAR-3 ovarian) [µM] | GI50 (HT29 colon) [µM] | TGI (HT29 colon) [µM] | GI50 (NCI-H522 lung) [µM] | TGI (NCI-H522 lung) [µM] | GI50 (PC-3 prostate) [µM] | TGI (PC-3 prostate) [µM] | GI50 (HOP-62 NSCLC) [µM] | TGI (HOP-62 NSCLC) [µM] | GI50 (U251 CNS) [µM] | TGI (U251 CNS) [µM]
1 | COc1cc(CSc2nc3ccc(C)cc3c(=O)n2Cc2ccccc2)cc(OC)c1OC | 1.05 | 3.13 | 4.82 | > 100 | 0.337 | 2.62 | 2.98 | 32.6 | 0.956 | 7.02 | 0.595 | 80.8 | 0.327 | 2.53 | 2.66 | > 100 | 3.21 | 21.4 | 3.2 | 20.8
2 | COCCOC(=O)C1=C(C)NC2=C(C(=O)CC(c3ccccc3OC)C2)C1c1cccc(O)c1 (stereo not given) | 8.55 | 24.8 | 23.3 | > 100 | 5.31 | 25.4 | 5.99 | 54.3 | 9.13 | 23.9 | 5.38 | 25.3 | 6.47 | 33.6 | 8.15 | > 95.2 | 5.84 | 44.3 | 16.3 | > 72.2
3 | COc1ccc(C(O)CNC(=O)c2ccccc2)cc1 (stereo not given) |  | > 100 |  | > 100 |  | > 100 |  | > 100 |  | > 100 |  | > 100 |  | > 100 |  | > 100 |  | > 100 |  | > 100
4 | CN1CCN(c2ccc3nc(-c4cc(C(C)(C)C)c(O)c(C(C)(C)C)c4)[nH]c3c2)CC1 | 2.02 | 4.26 | 3.53 | 12 | 1.73 | 3.16 | 2.86 | 7.61 | 4.06 | 14 | 2.1 | 4.41 | 2.11 | 4.33 | 1.92 | 4.17 | 2.29 | 5 | 2.92 | 8.59
5 | COc1ccc2c(c1)CC[C@@H]1[C@@H]2CC[C@@]2(C)[C@H]1CC1(CCCCC1)[C@@H]2O | 7.35 | 26 | 13.1 | 28.3 | 16.5 | 33.8 | 15.7 | 39.7 | 15.1 | 31.1 | 1.81 | 4.39 | 17.9 | 36.6 | 7.93 | 21.7 | 18.3 | 34.3 | 10 | 24.4
6 | COc1ccc(-c2n[nH]nc2-c2csc3ccccc23)cc1OC | 2.82 | 11.7 | 7.91 | > 100 | 0.337 | 3.52 | 2.83 | 32.6 | 1.94 | 7.63 | 2.78 | 10.6 | 0.601 | 2.81 | 3.08 | 35.4 | 2.18 | 24.3 | 2.19 | 11.4
7 | C#C[C@]1(O)CC[C@H]2[C@@H]3CC=C4c5sc(N=C(N)N)nc5CC[C@]4(C)[C@H]3CC[C@@]21C | 0.667 | 2.24 | 1.33 | 2.65 | 0.7 | 2.01 | 1.19 | 3.16 | 1.36 | 2.82 | 0.361 | 1.69 | 1.63 | 3.67 | 0.475 | 1.8 | 0.984 | 2.62 | 0.388 | 1.85
8 | O=C1OC(c2ccc(O)c(-c3ccccc3)c2)(c2ccc(O)c(-c3ccccc3)c2)c2c(Cl)c(Cl)c(Cl)c(Cl)c21 |  | > 100 |  | > 100 |  | > 100 |  | > 100 |  | > 100 |  | > 100 |  | > 100 |  | > 100 |  | > 100 |  | > 100
9 | CCC[C@H](N[C@@H]1CCc2cc(F)cc(F)c2C1)C(=O)Nc1cn(C(C)(C)CNCC(C)(C)C)cn1 | 12.5 | 26.9 | 21.1 | > 77.7 | 17 | 53.2 | 16 | > 65.4 | 15.3 | 42.9 | 11.7 | 30 | 15.7 | 56.1 | 7.63 | 79.2 | 20.8 | 75.1 | 15.7 | 58.7
10 | CO[C@@H]1[C@@H](OC2OC(C)C(OC3CC(C)(O)C(OC(=O)CC(C)C)C(C)O3)C(N(C)C)C2O)[C@@H](CC=O)C[C@@H](C)C(=O)/C=C/C2O[C@H]2C[C@@H](C)OC(=O)C[C@H]1OC(C)=O (stereo not given in full) |  | 26.2 |  | 31.8 |  | 45.2 |  | 84.4 |  | 40.5 |  | 26.4 |  | 36 |  | 38.4 |  | 37.8 |  | 35.7
11 | CC(C)(C)c1ccc([I+]c2ccc(C(C)(C)C)cc2)cc1 | 1.06 | 2.8 | 3.24 | 12.9 | 0.948 | 3.01 | 0.745 | 5.67 | 1.44 | 6.87 | 1.34 | 4.78 | 1.39 | 4.8 | 1.17 | 6.05 | 1.83 | 3.71 | 1.47 | 3.59
12 | CCCCCCCCCCCCCCCC(=O)OCC(O)C1OC(=O)C(O)=C1O (stereo not given) |  | > 100 |  | 95.4 |  | 42.4 |  | > 100 |  | > 100 |  | 38.8 |  | > 100 |  | > 100 |  | 60.3 |  | 61.7
13 | CC1(C)N=C(N)N=C(N)N1c1ccc(F)c(C(F)(F)F)c1 | 5.11 | > 100 | > 100 | > 100 | 0.239 | > 100 | > 90.7 | > 100 | 5.62 | > 100 | 0.363 | > 100 | 3.78 | > 100 | 0.256 | > 100 |  | > 100 | 0.503 | > 100
14 | CC(=O)O[C@@H]1CO[C@H]2O[C@H]3[C@@H](C(C=O)=C[C@H](O)[C@@H]4C5=C(C(C)C)CC[C@]5(C)CC[C@@]34C)[C@@]2(O)C1=O |  | 0.249 |  | 1.12 |  | 0.393 |  | 0.378 |  | 0.278 |  | 0.471 |  | 0.24 |  | 0.368 |  | 1.82 |  | 0.55
15 | O=C1C=C(Nc2ccccc2C(=O)CC(=O)C(=O)Nc2cccc(C(F)(F)F)c2)c2ccccc2C1=O |  | > 100 |  | > 100 |  | 20.9 |  | > 100 |  | 53.8 |  | > 100 |  | 79.2 |  | > 100 |  | > 72.7 |  | 96.5
16 | CCCN(CCC)c1ccc(CO)c(C)c1 | 19.4 | 68.8 | 13.1 | 44.2 | 76.8 | > 100 | 13.9 | 33.5 | 23 | > 100 | 90.2 | > 100 | 19.3 | 60.5 | 17.4 | 57.6 | > 100 | > 100 | 74 | > 100
17 | CCc1c2c(nc3cc4c(cc13)OCO4)-c1cc3c(c(=O)n1C2)COC(=O)[C@@]3(CC)OC(=O)CN | 0.133 | 1.13 | < 0.01 | 0.417 | < 0.01 | 1.23 | < 0.01 | 0.512 | < 0.01 | 0.315 | < 0.01 | 3.83 | < 0.01 | 0.239 | < 0.01 | > 35.5 | < 0.01 | < 0.01 | < 0.01 | 0.124
18 | [Cu+2].[O-]c1ccc2ccccc2c1N=Nc1ccccc1.[O-]c1ccc2ccccc2c1N=Nc1ccccc1 |  | > 100 |  | > 100 |  | > 100 | > 100 | > 100 |  | > 100 |  | > 100 |  | > 100 |  | > 100 |  | > 100 |  | > 100
19 | Cn1c(COC(=O)N2CCCCC2)nc2c(N3CCOCC3)nc(-c3ccccc3)nc21 | 1.03 | 2.63 | 1.42 | 2.97 | 0.58 | 1.86 | 1.47 | 3.91 | 0.182 | 0.39 | 0.417 | 1.59 | 0.406 | 1.76 | 0.666 | 2.15 | 1.42 | 3.21 | 1.37 | 2.81
20 | CC(C)=CCc1c(O)cc(/C=C/c2cc(O)c3c(c2)C[C@@H]2C(C)(C)[C@H](O)[C@H](O)C[C@@]2(C)O3)cc1O | 1.37 | 3.82 | 1.36 | > 7.96 | 0.662 | 4.22 | 1.85 | > 9.39 | 1.5 | 5.11 | 0.373 | 3.54 | 0.363 | 2.86 | 0.345 | > 10 | 1.38 | > 7.95 | 0.0533 | > 5.28
